Source: patent US9801372B2, “Polymers for increasing the soil mobility of low-solubility insecticides” (BASF SE, priority 2009, dated 2017)

Description: First, a calibration with the active ingredient to be determined is performed at a suitable wavelength in different concentrations. To study the solubilization with a polymeric solubilizer, a 1% by weight polymer solution is prepared and the UV absorption is measured at said wavelength. The polymer solution is saturated with the active ingredient to be analyzed and equilibrated for 24 h. After centrifugation of the solution and UV analysis of the supernatant at said wavelength, after subtracting the polymer absorption over the calibration curve, the dissolved active ingredient concentration can be concluded.
The fipronil concentration was determined by means of UV spectroscopy at 278 nm; to this end, the absorption of the polymer (1% by weight in water) was first determined alone. Subsequently, an excess of fipronil was added and the mixture was stirred at room temperature overnight. The centrifuged solution was analyzed once again at 278 nm in the UV instrument. After subtracting the appropriate solubilizer spectrum and comparing by means of a fipronil calibration curve produced beforehand, it was possible to determine the concentration of dissolved fipronil.

Compound	Fipronil solubility in ppm [ppm]
N#Cc1nn(-c2c(Cl)cc(C(F)(F)F)cc2Cl)c(N)c1[S+]([O-])C(F)(F)F (centres unmarked) [Fipronil]	2.2
Triton X-100	13
